# Activity calls are given as the source filed them.
# Tests used:
# [1] = NIH3T3 cell viability loss – ATP luminescence, mouse fibroblasts, counter-screen, dose response (AID 2010); type: functional, cell-based;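 note: cells exposed to compound for about 90 hours before reading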
# [2] = alpha-synuclein stem-loop luciferase translation blockers – H4 neuroglioma cells, luminescence, confirmation (AID 1988); type: functional, cell-based
# [3] = luciferase reporter signal suppression in cells – H4 neuroglioma cells, luminescence, dose response (AID 1990); type: functional, cell-based
# [4] = Trypanosoma cruzi growth suppression in host cells – NIH3T3 host cells, beta-gal luminescence, confirmation (AID 2044); type: functional, cell-based;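 note: intracellular parasites grown in NIH/3T3 mouse fibroblasts as host cells; luminescent beta-galactosidase reporter signal from transgenic T. cruzi replicating inside host cells; inhibitors lower the luminescence signal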
# [5] = target: T1, Rac GTPase-activating protein 1 (Homo sapiens, UniProt Q9H0H5); assay: blockers of MgcRacGAP-driven Rac1 GTP hydrolysis – biochemical, ADP Hunter fluorescence, primary and confirmatory, confirmation (AID 624330); type: functional
# T1 sequence (Q9H0H5 whole entry): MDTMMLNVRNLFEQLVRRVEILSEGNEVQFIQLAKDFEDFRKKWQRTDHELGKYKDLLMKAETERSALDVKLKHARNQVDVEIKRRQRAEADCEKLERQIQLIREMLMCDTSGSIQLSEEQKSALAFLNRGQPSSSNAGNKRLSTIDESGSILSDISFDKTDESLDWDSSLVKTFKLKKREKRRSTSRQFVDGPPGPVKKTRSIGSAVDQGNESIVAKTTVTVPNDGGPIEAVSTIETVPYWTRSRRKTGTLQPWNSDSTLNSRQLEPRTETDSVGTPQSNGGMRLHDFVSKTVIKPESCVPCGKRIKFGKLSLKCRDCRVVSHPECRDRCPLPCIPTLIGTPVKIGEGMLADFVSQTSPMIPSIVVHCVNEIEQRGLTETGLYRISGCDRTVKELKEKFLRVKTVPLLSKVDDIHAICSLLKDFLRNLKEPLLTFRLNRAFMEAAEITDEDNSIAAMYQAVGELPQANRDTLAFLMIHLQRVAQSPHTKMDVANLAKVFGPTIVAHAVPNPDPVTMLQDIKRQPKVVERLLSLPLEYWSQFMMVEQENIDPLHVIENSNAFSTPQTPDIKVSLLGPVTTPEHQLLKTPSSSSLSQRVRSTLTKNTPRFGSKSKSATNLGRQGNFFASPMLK
# [6] = target: T2, Heat shock factor protein 1 (Mus musculus, UniProt P38532); assay: decrease of HSF1-responsive luciferase luminescence – cell-based, NIH3T3, dose retest, confirmation (AID 2382); type: functional;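 note: NIH3T3 fibroblasts with HSF1-driven luciferase reporter stressed by proteasome inhibitor MG132; luminescence from HSF1-driven luciferase expression after 8 hours of MG132 stress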
# T2 sequence (P38532 whole entry): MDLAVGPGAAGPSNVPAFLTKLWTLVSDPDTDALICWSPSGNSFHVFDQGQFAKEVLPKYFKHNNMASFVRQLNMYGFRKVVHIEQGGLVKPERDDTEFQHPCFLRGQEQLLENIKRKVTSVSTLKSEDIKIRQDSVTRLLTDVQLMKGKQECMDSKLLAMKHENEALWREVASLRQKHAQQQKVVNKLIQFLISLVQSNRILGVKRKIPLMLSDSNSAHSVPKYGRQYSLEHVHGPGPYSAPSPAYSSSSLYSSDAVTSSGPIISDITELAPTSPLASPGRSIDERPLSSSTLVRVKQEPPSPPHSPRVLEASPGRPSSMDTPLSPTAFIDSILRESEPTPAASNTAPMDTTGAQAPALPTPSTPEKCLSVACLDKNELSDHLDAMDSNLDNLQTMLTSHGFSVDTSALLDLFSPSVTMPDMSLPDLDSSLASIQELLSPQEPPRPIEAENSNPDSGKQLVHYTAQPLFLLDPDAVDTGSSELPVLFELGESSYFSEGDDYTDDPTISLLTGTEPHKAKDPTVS
# [7] = target: T3, Polyadenylate-binding protein 1 (Homo sapiens, UniProt P11940); assay: MLLE domain peptide-binding blockers, IC50 – biochemical, fluorescence polarization, FITC-PAM2 peptide, dose response (AID 602259); type: functional; settings: read-out: IC50_Mean
# T3 sequence (P11940 whole entry, the tested form may be a part): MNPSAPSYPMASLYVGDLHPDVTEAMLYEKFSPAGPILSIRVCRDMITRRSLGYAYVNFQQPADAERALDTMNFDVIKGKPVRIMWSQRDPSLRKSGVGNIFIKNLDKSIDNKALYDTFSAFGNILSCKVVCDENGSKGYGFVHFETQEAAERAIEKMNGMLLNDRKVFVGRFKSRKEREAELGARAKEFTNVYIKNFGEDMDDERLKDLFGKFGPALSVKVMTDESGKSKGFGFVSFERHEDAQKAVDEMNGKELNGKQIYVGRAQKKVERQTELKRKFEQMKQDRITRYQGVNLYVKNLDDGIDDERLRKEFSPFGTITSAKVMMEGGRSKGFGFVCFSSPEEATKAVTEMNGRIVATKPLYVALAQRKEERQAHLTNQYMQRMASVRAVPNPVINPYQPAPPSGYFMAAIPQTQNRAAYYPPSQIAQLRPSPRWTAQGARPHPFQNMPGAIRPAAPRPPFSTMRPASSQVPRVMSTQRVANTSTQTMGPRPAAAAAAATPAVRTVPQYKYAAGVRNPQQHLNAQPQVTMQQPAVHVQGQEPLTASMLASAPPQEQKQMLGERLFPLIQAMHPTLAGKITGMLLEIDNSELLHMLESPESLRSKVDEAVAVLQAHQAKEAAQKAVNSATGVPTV
# [8] = target: T3, Polyadenylate-binding protein 1; assay: MLLE binding blockers, Cy5 peptide tracer – biochemical, fluorescence polarization, Cy5-PAM2 peptide, secondary, miRNA deadenylation inhibitor project, dose response (AID 602260); type: functional; settings: read-out: IC50_Mean
# [9] = Luminescence Cell-Based Dose Retest to Confirm Inhibitors of Cancer Stem Cells. [Related pubchem assays (depositor defined):AID2717, AID2721]; type: functional; settings: Homo sapiens
# [10] = system: Streptococcus sp. 'group A'; assay: Streptococcus pyogenes SK(-)GAS viability under kanamycin – luminescence, BacTiterGlo, confirmation, counter-screen for streptokinase expression inhibitor project, dose response (AID 1900); type: functional, organism-based
# Streptococcus = assay: GAS UMAA2166 growth inhibition – luminescence, BacTiterGlo, counter-screen for streptokinase expression inhibitor project, dose response (AID 1915); type: functional, organism-based;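 note: potency for reduction of bacterial viability or growth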
# Streptokinase A = target: T4, Streptokinase A (Streptococcus pyogenes serotype M1, UniProt P10520); assay: viability-normalized secreted streptokinase activity reduction – plasminogen activation absorbance, OD405, dose response (AID 1914); type: functional, Streptococcus pyogenes M1 GAS;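 note: secreted streptokinase activity via plasminogen activation per viability signal from cell pellet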
# T4 sequence (P10520 whole entry): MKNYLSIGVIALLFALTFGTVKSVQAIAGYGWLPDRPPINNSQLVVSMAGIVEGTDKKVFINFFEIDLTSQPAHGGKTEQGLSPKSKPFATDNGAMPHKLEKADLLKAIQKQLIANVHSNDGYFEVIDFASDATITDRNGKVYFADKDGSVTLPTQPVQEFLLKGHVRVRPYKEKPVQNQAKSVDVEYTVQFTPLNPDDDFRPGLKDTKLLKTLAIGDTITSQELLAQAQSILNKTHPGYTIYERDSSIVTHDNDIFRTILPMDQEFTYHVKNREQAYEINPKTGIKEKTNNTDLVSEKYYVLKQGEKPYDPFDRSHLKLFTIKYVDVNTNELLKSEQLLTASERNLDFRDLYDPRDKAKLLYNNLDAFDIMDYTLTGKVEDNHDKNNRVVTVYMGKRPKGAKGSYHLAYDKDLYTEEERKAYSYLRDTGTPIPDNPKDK
# 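Throughout, for AC50: cells exposed to compound for roughly 70 hours or longer before luminescence read.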
smiles,measurement,setting,value
COc1cccc2sc(Nc3nc(-c4ccncc4)cs3)nc12,EC50,[1],3.65 µM (active)
same,EC50,[2],0.601 µM (active)
same,EC50,[3],3.2 µM (active)
same,EC50,[4],2.41 µM (active)
O=C(CN1CCCCCC1)NN(Cc1ccccc1)c1ccccc1,IC50,[5],301 µM (active)
CCOP(=O)(OCC)c1cccc(OP(=O)(c2cccc([N+](=O)[O-])c2)c2cccc([N+](=O)[O-])c2)c1,EC50,[6],> 195 µM (not active)
O=C(CN1CCN(C/C=C/c2ccccc2)CC1)Nc1ccccc1C(=O)NC1CC1,IC50,[5],90.5 µM (active)
CS(=O)(=O)N(Cc1ccccc1)c1ccc(C(=O)NCCSCc2ccco2)cc1,IC50,[7],> 66 µM (inactive)
same,IC50,[8],> 66 µM (inactive)
Cc1ccc(/C=C/C(=O)Nc2nn[nH]n2)o1,IC50,[7],> 66 µM (inactive)
same,IC50,[8],> 66 µM (inactive)
COc1ccc(C(=O)N2CCN=C2SCc2cccnc2)cc1OC,EC50,[6],> 195 µM (not active)
O=C(Nc1ccc(OC(F)F)c(Cl)c1)Nc1ccc2c(c1)OCO2,AC50,[9],2.04 µM (active)
COc1ccc(-c2cc(C(=O)Nc3ccc(O)cc3)c3ccccc3n2)cc1OC,IC50,[5],159 µM (active)
CCCN1CCc2c(sc(NC(=O)c3ccc(S(=O)(=O)N(C)c4ccccc4)cc3)c2C(=O)NC)C1,AC50,[9],3.26 µM (active)
CCN(c1ccccc1)S(=O)(=O)c1c[nH]cn1,EC50,[6],> 195 µM (not active)
CCOC(=O)N1CCN(S(=O)(=O)c2ccc3c(c2)OCC(=O)N3)CC1,EC50,[6],> 195 µM (not active)
CCN(CCS(=O)(=O)c1ccc(Cl)cc1)C(=O)Nc1ccccc1,EC50,[6],> 195 µM (not active)
Cc1csc(=O)n1CCC(=O)OCC(=O)NNC(=O)c1ccc(Cl)cc1,IC50,[7],> 66 µM (inactive)
same,IC50,[8],> 66 µM (inactive)
Cc1cc(C)cc(NC(=O)Nc2ccc(-n3ccc(C(F)(F)F)n3)cc2)c1,AC50,[9],1.61 µM (active)
NN=C(S)NC1CC2CC1C1C=CCC21 (stereo not drawn),EC50,[6],> 195 µM (not active)
Cc1nc2cc(C(=O)O)ccc2s1,IC50,[7],> 66 µM (inactive)
same,IC50,[8],> 66 µM (inactive)
Nc1ccc2c(c1)Oc1ccccc1C=C2,AC50,[9],> 195 µM (inactive)
Cc1ccc(Cl)cc1NC(=O)C1COc2ccccc2O1 (stereo not drawn),EC50,[6],> 195 µM (not active)
Cc1ccc(C(c2sc3ncnn3c2O)N2CC(C)CC(C)C2)cc1 (stereo not drawn),EC50,[6],> 195 µM (not active)
c1ccc(Cc2nn3c(-c4ccncc4)nnc3s2)cc1,IC50,[7],> 66 µM (inactive)
same,IC50,[8],> 66 µM (inactive)
CCOC(=O)C(CC)Sc1nc2c(c(=O)[nH]c(=O)n2C)n1CCc1ccccc1 (stereo not drawn),IC50,[7],> 66 µM (inactive)
same,IC50,[8],> 66 µM (inactive)
O=C(c1cc2c(s1)-c1ccccc1OC2)N1CCN(c2ccccc2)CC1,EC50,[6],> 195 µM (not active)
Cc1cc(C(=O)NC2CCCN(Cc3ccc(Cl)cc3)C2)n(C)n1 (stereo not drawn),EC50,[6],> 195 µM (not active)
NC(=O)CC(NC(=O)Cc1ccc(Br)cc1)c1ccc(NCc2cc(F)ccc2F)c([N+](=O)[O-])c1 (stereo not drawn),AC50,[9],2.52 µM (active)
O=C(/C=C/c1ccco1)NC(=S)Nc1ccc(N2CCCC2)cc1,IC50,[7],> 66 µM (inactive)
same,IC50,[8],> 66 µM (inactive)
CCOc1cc(NC(=O)c2ccccn2)c(OCC)cc1NC(=O)c1ccccc1,AC50,[9],24.4 µM (active)
CCCSc1nnc(CNS(=O)(=O)c2ccc(C)cc2)n1C,EC50,[6],> 195 µM (not active)
Nc1ccc(N=Nc2ccccc2)c2ccccc12,EC50,[10],8.03 µM (active)
same,EC50,Streptococcus,9.13 µM (active)
same,EC50,Streptokinase A,> 150 µM (not active)
same,AC50,[9],6.49 µM (active)
CCN1C(=O)/C(=C2\SC(=S)N(c3c(C)n(C)n(-c4ccccc4)c3=O)C2=O)c2ccccc21,IC50,[7],> 66 µM (inactive)
same,IC50,[8],> 66 µM (inactive)
COc1cc2sc(-c3ccccc3OC)c(-c3ccc(O)cc3)c2cc1OC,AC50,[9],2.32 µM (active)
Cc1ccc(S(=O)(=O)Nc2cc(C)c(O)c(Sc3nnc(C)[nH]3)c2)cc1,IC50,[7],> 66 µM (inactive)
same,IC50,[8],> 66 µM (inactive)
CCN(CC)c1ccc(/C=N/NC(=O)c2cc3ccccc3[nH]2)cc1,IC50,[5],146 µM (active)
